Source: publication PMC4421842 (Nature Communications, 2015)

Columns and labels:
E. faecalis = assay: microbe, parasite or virus in culture; assay type: cell-based; settings: E. faecalis, gyrA Ser83Ile
E. faecium = assay: microbe, parasite or virus in culture; assay type: cell-based; settings: E. faecium, gyrA Ser83Ile, parC Ser80Ile

Measured: MIC

Cc1cc(=O)n(C)c2c3c4c(cc12)c(C)cc(=O)n4CO3 [DNM, deoxynybomycin]
0.25 µg/mL: E. faecalis; C21667, parC Ser80Ile | E. faecalis; C28535, parC Ser80Ile | E. faecalis; S234, parC Ser80Ile Glu84Asp | E. faecium; C27569 | E. faecium; D1 | E. faecium; S51 | E. faecium; S122 | E. faecium; SL152

CCn1c(=O)cc(C)c2cc3c(C)cc(=O)n4c3c(c21)OC4 [DNM-2]
0.25 µg/mL: E. faecalis; C28535, parC Ser80Ile | E. faecalis; S234, parC Ser80Ile Glu84Asp
